Measurements from US9233116B2, “Composition containing iridoids and uses thereof” (XUANWU HOSPITAL OF CAPITAL MEDICAL UNIVERSITY, priority 2010, dated 2016).

Columns and labels:
[1] = system: experimental autoimmune encephalomyelitis (EAE) mice model; assay: Nervous function score in EAE mice model; assay type: in vivo, C57BL/6J mice; settings: peak of attack, positive control drug, dose not given
Procedure: (§1) Preparation of mice model and administration: experimental autoimmune encephalomyelitis (EAE) mice model is an important tool for studying various human nervous system demyelinating diseases. In the present experiment, the preparation of EAE mice model was performed by immunizing female C57BL/6J mice with myelin sheath oligodendroglial cell surface glycoprotein MOG35-55. That is, the mice were subcutaneously injected at dorsal part of spinal column with 0.2 mL of MOG35-55 antigen elixir, and 0.2 ml of bordetella pertussis solution was intraperitoneally injected at the time of immunization injection and 48 h thereafter, respectively. The composition of morroniside and loganin was intragastrically administered after the last injection of bordetella pertussis solution, for consecutive 3 weeks.
Nervous function test method: the ethological changes of mice were observed by two experimenters every day using blind method. Scoring standard: 0 score, absence of symptom; 1 score, decrease of tail tension, evident slight gait awkward; 2 score, disappearance of tail tension, moderate gait abnormal, deficient in maintaining gesture; 3 score, limb strength weak; 4 score, limb paralysis; 5 score, near death or died.

[2] = Body weight drop in EAE mice model; assay type: in vivo, C57BL/6J mice; settings: peak of attack, positive control drug, dose not given
Procedure: as §1
Experimental method: the methods for modeling and administration were the same of Experiment 1. The body weight changes of mice were recorded every day.

[3] = system: myelin sheath of spinal cord in EAE model mice; assay: Myelinoclasis of spinal cord in EAE mice model (LFB staining); assay type: in vivo; settings: day 29, positive control drug, dose not given
Procedure: as §1
Experimental method: the mice were anesthetized with 10% chloral hydrate on the 29th day of experiment, fixed by perfusion of 4% paraformaldehyde, myeloid tissues were taken for making paraffin sections, section thickness 5 μm. Stained with LFB, observed under microscope, and scored according to the following standard: 0 score, absence of myelinoclasis; 1 score, one small range of myelinoclasis; 2 score, 2 or 3 small ranges of myelinoclasis; 3 score, 1 to 2 large ranges of myelinoclasis; 4 score, large ranges of myelinoclasis accumulatively existing in 20% or more of white matter regions.

[4] = system: spinal cord tissues of EAE mice model; assay: Inflammatory cell infiltration in spinal cord tissues of EAE mice model (HE staining); assay type: in vivo; settings: day 29, positive control drug, dose not given
Procedure: as §1, with “The composition of morroniside and loganin was intragastrically administered after the last injection of bordetella pertussis solution, for consecutive 3 weeks.” left out
Experimental method: the mice were anesthetized with 10% chloral hydrate on the 29th day of experiment, fixed by perfusion of 4% paraformaldehyde, spinal cord tissues were taken for making paraffin sections, section thickness 5 μm. Stained with HE, observed under microscope, and scored according to the following standard: 0 score, absence of cell infiltration; 1 score, spinal meninge cell infiltration; 2 score, 1 to 4 small ranges of cell infiltration around vessels; 3 score, 5 or more small ranges of cell infiltration around vessels, or one or more accumulatively substantial large range of cell infiltration; 4 score, a large number of cell infiltration ranges accumulatively existing in 20% or more of white matter regions.

IL-1 = assay: Serum IL-1 content in EAE mice model (ELISA); assay type: in vivo; settings: serum of EAE mice; positive control drug, dose not given
Procedure: as §1
(§2) Experimental method: mice were anesthetized with pentobarbital sodium, blood sample was taken from abdominal aorta, stood at room temperature for 2 h, centrifuged at 3000 rpm for 20 min, and supernatant was taken, stored at −80° C. for use. The operation was performed strictly according to the steps of specification of ELISA kit. Optical density was measured with ELIASA at 450 nm. The corresponding contents of IL-1 and IL-6 were calculated with the measured OD values on standard curve.

IL-6 = assay: Serum IL-6 content in EAE mice model (ELISA); assay type: in vivo; settings: serum of EAE mice; positive control drug, dose not given
Procedure: as §1, §2

[5] = system: CNPase (marker protein of mature oligodendroglial cells); assay: CNPase content in spinal cord of EAE model mice (Western blot); assay type: in vivo; settings: positive control drug, dose not given
Procedure: as §1
Experimental method: the mice were anesthetized and sacrificed, fresh spinal cord was taken on ice, total protein was extracted by clearage on ice, to prepare Western blot sample, added with CNPase primary antibody and incubated, added with corresponding secondary antibody, ECL colorated, Kodak film exposed. Pictures were analyzed with Image J software and standardized with actin.

[6] = system: experimental autoimmune encephalomyelitis (EAE) rats model; assay: Nervous function damage in EAE rats model; assay type: in vivo, Lewis rats; settings: peak of attack, positive control drug, dose not given
Procedure: (§3) Preparation of rat model and administration: in this experiment, the preparation of EAE rat model was performed by multipoint immunizing female Lewis rats subcutaneously at tail root with a homogenate of spinal cord and cerebral gray matter of Guinea pig as well as complete Freund's adjuvant after emulsification. They were intragastrically administered with a composition of morroniside and loganin for 3 weeks.
Nervous function test method: the ethological changes of rats were observed by two experimenters using blind method every day. Scoring standard: 0 score, absence of symptom; 1 score, decrease of tail tension, visible evident slight gait awkward; 2 score, double hind limbs weak, walk difficult; 3 score, double hind limbs paralysis; 4 score, double hind limbs paralysis and fore limbs weak; 5 score, four limbs paralysis; 6 score, near death or died.

[7] = Body weight drop in EAE rat model; assay type: in vivo, Lewis rats; settings: EAE rats, peak of attack; positive control drug, dose not given
Procedure: as §3
Experimental method: the methods for modeling and administration were the same of Experiment 7. The body weight changes of rats were recorded every day.

Question: Which “Nervous function damage score” value [1] does the source give for `CC(=O)OCC(=O)[C@@]1(O)CC[C@H]2[C@@H]3CCC4=CC(=O)C=C[C@]4(C)[C@H]3C(=O)C[C@@]21C` [prednisone acetate] here?
Answer: 1.36 ± 0.62 score

Question: And the Bodyweight [2]?
Answer: 20.52 ± 1.19 g

Question: And the “Myelinoclasis (LFB staining score)” value [3]?
Answer: 0.81 ± 0.21 score

Question: What about the “Inflammatory cell infiltration (HE staining score)” value [4] of the same compound?
Answer: 1.16 ± 0.12 score

Question: And the 1L-1 content (IL-1)?
Answer: 0.114 ± 0.001 pg/mL

Question: What about the IL-6 content (IL-6) of the same compound?
Answer: 0.124 ± 0.002 pg/mL

Question: And the “Oligodendroglial cells (CNPase/actin integration grey level)” value [5]?
Answer: 1.18 ± 0.02

Question: And the “Nervous function damage score” value [6]?
Answer: 1.16 ± 1.21 score

Question: And the Bodyweight [7]?
Answer: 198.5 ± 7.1 g
